For one data set, the system named is C-reactive protein (CRP). The experiment in a line: Circulating C-reactive protein levels (ELISA) in croton oil-stimulated infarct model. The data set is classed as in vivo, rabbit. The conditions noted are these: 50 mg/kg IV for 4 days; 1% croton oil; sample at time of reperfusion; controls +23.5%. The text has this: (§1) The influence of parenteral administration of the disodium disuccinate astaxanthin derivative (XVI) on induced infarct size and induced levels of circulating C-reactive protein (CRP) in rabbits was investigated using the methods of Barrett et al. (2002) with slight modifications. The purpose of the current study was to investigate the ability of the disodium disuccinate astaxanthin derivative (XVI) to reduce inflammation as measured by CRP in the setting of experimental myocardial ischemia-reperfusion injury in the rabbit heart. […] Therefore, reduction of circulating CRP levels, together with the reduction(s) in infarct size previously noted with Cardax™ in rodents, would form a powerful anti-inflammatory therapeutic modality in the acute coronary syndrome setting.
In brief, male New Zealand white rabbits (2.25-2.5 kg) were used for the study. The acute phase inflammatory response was induced by subcutaneous injection of four aliquots (0.5 mL each) of 1% croton oil in corn oil beginning on the second day of pre-treatment with Cardax™. Either Cardax™ (at 50 mg/kg IV by ear vein injection) in water or equal volumes of sterile saline were given once per day for 4 days prior to experimental infarction on day 5. The time course of increases in circulating CRP levels were obtained as described previously (Barret et al. 2002), using an ELISA-based method with anti-rabbit CRP antibodies. […]
On the technique in general: ELISA stands for enzyme-linked immunosorbent assay.

The next data set deals with Cx43 protein. Briefly: Cx43 protein expression by stereoisomer forms (immuno-(Western) blotting, 4 days). The data set is classed as cell-based, mouse. The conditions noted are these: 1×10^-5 M in 1:2 ethanol/H2O. As for the experimental part: (2) Molecular Studies. […] Briefly, mouse embryonic fibroblast C3H10T1/2 cells were cultured in Eagle's basal medium with Earle's salts (Atlanta Biologicals, Atlanta, Ga.), supplemented with 5% fetal calf serum (Atlanta Biologicals, Atlanta, Ga.) and 25 μg/mL gentamicin sulfate (Sigma, St. Louis, Mo.), and incubated at 37° C. in 5% CO2. On the 7th day after seeding in 100 millimeter (mm) dishes, the confluent cells were treated for four days with the disodium salt disuccinate astaxanthin derivatives XVI and then harvested and analyzed for Cx43 protein induction as described. Protein content was measured using the Protein Assay Reagent kit (Pierce Chemical Co., Rockford, Ill.) according to manufacturer's instructions. Cell lysates containing 100 μg of protein were analyzed by Western blotting using the NuPage western blotting kit and apparatus (Invitrogen, Carlsbad, Calif.) and Cx43 protein detected using a rabbit polyclonal antibody (Zymed, San Francisco, Calif.) raised against a synthetic polypeptide corresponding to the C-terminal domain of mouse, human and rat Cx43. Cx43 immunoreactive bands were visualized by chemiluminescence using an anti-rabbit HRP-conjugated secondary antibody (Pierce Chemical Co., Rockford, Ill.). Digital images were obtained with a cooled CCD camera, and quantitative densitometry was then performed (Bio-Rad, Richmond, Calif.).

Data set [1] in a line: Single dose oral plasma pharmacokinetics. The data set is classed as in vivo, male C57BL/6 mice. The conditions noted are these: free astaxanthin, single 500 mg/kg oral dose. As to the method: Single dose oral pharmacokinetic parameters (including Cmax, Tmax, AUC(0-72) Vd, and clearance) of the disodium disuccinate astaxanthin derivative XVI were determined in male C57BL/6 mice. The animals were administered the derivative orally at a single maximum dose (500 mg/kg) shown in prior studies to likely be efficacious in preventing the injury secondary to CCl4-administration in Sprague-Dawley rats (100 mg/kg body weight in those studies). Samples for HPLC analysis of levels of free astaxanthin in plasma and liver were obtained at the following time points, from at least 3 animals per time point: Time 0 [Immediately Before Dosing of Test Compound], 2, 4, 6, 8, 12, 16, 24, 48, and 72 Hours After Ingestion. Additional samples, with N<3, were taken at other intervals (10, 14, and 36 hours; Tables 2 and 3). Non-esterified, free astaxanthin levels were determined in this study as carotenoid esters are completely cleaved in the mammalian gut to free carotenoid, which moves passively across the enterocyte. 5 Male C57BL/6 mice, approximately 25 g, were housed in cages (three mice/cage) and fed standard mouse chow (Purina Mouse Chow, Ralston Purina, St. Louis) and water ad libitum for at least five days prior to the start of the experiment. […]

Data set [2] relates to male New Zealand white rabbits. The experiment in a line: Experimental infarct size after parenteral administration. The data set is classed as in vivo, rabbit.
Source text: as §1
In brief, male New Zealand white rabbits (2.25-2.5 kg) were used for the study. The acute phase inflammatory response was induced by subcutaneous injection of four aliquots (0.5 mL each) of 1% croton oil in corn oil beginning on the second day of pre-treatment with Cardax™. […]
At the completion of the reperfusion phase of the protocol, the hearts were removed and cannulated by the aorta on the Langendorff perfusion apparatus. […] Total area at risk was expressed as a percentage of the left ventricle. Infarct size was then expressed as a percentage of area at risk.

Counter-ions that a name gives are not always drawn.

As to `CC1=C(/C=C/C(C)=C/C=C/C(C)=C/C=C/C=C(C)/C=C/C=C(C)/C=C/C2=C(C)C(=O)C(OC(=O)CCC(=O)O)CC2(C)C)C(C)(C)CC(OC(=O)CCC(=O)O)C1=O` (racemic) [XVI, Disodium Salt of the Disuccinic Acid Ester of Astaxanthin], in the data set on C-reactive protein (CRP), the “mean change in circulating CRP levels from baseline” value is −15.7%. The “rank of Cx43 induction level among derivatives” value with Cx43 protein is reported as “highest induction level of Cx43 of all derivatives tested”. For the same compound, the “expression of Cx43 protein” value with Cx43 protein (four days, vs 1:2 ethanol/H2O alone) is “increase expression of Cx43 protein”. Also, in data set [1], the Oral clearance worked out at 216.822 L/h. Further, in data set [2] (50 mg/kg IV once per day for 4 days, 30 min occlusion / 180 min reperfusion), the “reductions in infarct size” value is on record as “approximately 55.4%”. Also, the “increase in infarct size reduction in rabbit vs rodents” value in data set [2] (same dose and identical pre-treatment schedule) was 38%.

These data come from patent publication US7345091B2, “Carotenoid ether analogs or derivatives for the inhibition and amelioration of disease” (Cardax Pharmaceuticals, Inc., priority 2002, dated 2008).
